Biological target: human FXR (NR1H4) (Homo sapiens (Human), UniProt Q96RI1)
Assay: Human FXR (NR1H4) Assay (luciferase reporter, Indigo Bioscience kit); on Efficacy (%): efficacy normalized to CDCA set as 100%
Type: cell-based
Settings: for EC50: FXR agonistic potency range, CHO reporter cells expressing human NR1H4, 22 hours incubation; for Emax: read-out: Efficacy (%)
Text: Assays Human FXR (NR1H4) Assay
Determination of a ligand mediated Gal4 promoter driven transactivation to quantify ligand binding mediated activation of FXR. FXR Reporter Assay kit purchased from Indigo Bioscience (Catalogue number: IB00601) to determine the potency and efficacy of compound developed by Enanta that can induce FXR activation. The principle application of this reporter assay system is to quantify functional activity of human FXR. The assay utilizes non-human mammalian cells, CHO (Chinese hamster ovary) cells engineered to express human NR1H4 protein (referred to as FXR). Reporter cells also incorporate the cDNA encoding beetle luciferase which catalyzes the substrates and yields photon emission. Luminescence intensity of the reaction is quantified using a plate-reading luminometer, Envision. Reporter Cells include the luciferase reporter gene functionally linked to an FXR responsive promoter. Thus, quantifying changes in luciferase expression in the treated reporter cells provides a sensitive surrogate measure of the changes in FXR activity. […] The assay is according to the manufacturer's instructions. In brief, the assay was performed in white, 96 well plates using final volume of 100 ul containing cells with different doses of compounds. Retrieve Reporter Cells from −80° C. storage. Perform a rapid thaw of the frozen cells by transferring a 10 ml volume of 37° C. cell recovery medium into the tube of frozen cells. Recap the tube of Reporter Cells and immediately place it in a 37° C. water bath for 5-10 minutes. Retrieve the tube of Reporter Cell Suspension from the water bath. Sanitize the outside surface of the tube with a 70% alcohol swab, and then transfer it into the cell culture hood. Dispense 90 μl of cell suspension into each well of the 96-well Assay Plate. Transfer the plate into 37° C. incubator, allowing the cells adherent to the bottom of the well. Dilute compounds in Dilution Plate (DP), and administrate to cells at Assay Plate (AP). DMSO content of the samples was kept at 0.2%. Cells were incubated for additional 22 hours before luciferase activities were measured. Thirty minutes before intending to quantify FXR activity, remove Detection Substrate and Detection Buffer from the refrigerator and place them in a low-light area so that they may equilibrate to room temperature. Remove the plate's lid and discard all media contents by ejecting it into an appropriate waste container. Gently tap the inverted plate onto a clean absorbent paper towel to remove residual droplets. Cells will remain tightly adhered to well bottoms. Add 100 μl of luciferase detection reagent to each well of the assay plate. Allow the assay plate to rest at room temperature for at least 5 minutes following the addition of LDR. Set the instrument (Envision) to perform a single 5 second “plate shake” prior to reading the first assay well. Read time may be 0.5 second (500 mSec) per well.

Chain of human FXR (NR1H4) (Q96RI1 whole entry): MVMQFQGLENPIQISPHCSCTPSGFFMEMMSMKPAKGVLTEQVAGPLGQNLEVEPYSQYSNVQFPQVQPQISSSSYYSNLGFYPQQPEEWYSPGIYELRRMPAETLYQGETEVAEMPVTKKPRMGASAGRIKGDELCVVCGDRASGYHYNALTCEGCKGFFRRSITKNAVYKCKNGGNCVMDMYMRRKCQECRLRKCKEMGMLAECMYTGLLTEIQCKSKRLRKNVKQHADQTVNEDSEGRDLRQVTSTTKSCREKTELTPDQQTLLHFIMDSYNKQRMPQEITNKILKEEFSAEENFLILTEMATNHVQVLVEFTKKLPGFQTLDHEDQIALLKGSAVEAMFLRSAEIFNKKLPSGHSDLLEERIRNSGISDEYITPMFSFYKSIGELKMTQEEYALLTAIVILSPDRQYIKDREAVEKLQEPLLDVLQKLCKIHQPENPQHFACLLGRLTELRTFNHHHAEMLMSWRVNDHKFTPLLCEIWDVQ

Structure (SMILES) | EC50 [nM] | Emax [%]
CC[C@H]1[C@@H](O)[C@@H]2[C@H](CC[C@]3(C)[C@@H]([C@H](C)CC4CC4c4ccc(C(=O)O)cc4)CC[C@@H]23)[C@@]2(C)CC[C@@H](O)C[C@@H]12 (stereo partly shown) [Example 34] | 1000 to 10000 | 195
CC[C@H]1[C@@H](O)[C@@H]2[C@H](CC[C@]3(C)[C@@H]([C@H](C)CCOc4ccc(F)cc4C(=O)O)CC[C@@H]23)[C@@]2(C)CC[C@@H](O)C[C@@H]12 [Example 35] | 100 to 1000 | 203
